Here are results for 16 compounds from patent US8026219B2, “Antimicrobial linear peptides” (Universitat de Girona, priority 2006, dated 2011).

Residues, ends and D or L forms follow the SMILES beside them. No end group written: not given here. *: point of attachment. Tos = Cc1ccc(S(=O)(=O)*)cc1; Bz = O=C(c1ccccc1)*

The test system of series [1] is erythrocytes from fresh human blood. The following applies: 5% erythrocytes, 1 h at 37° C., relative to 200 μM melittin; for % Haemolysis 50 μM: 50 μM peptide; for % Haemolysis 150 μM: 150 μM peptide; for % Haemolysis 250 μM: 250 μM peptide. As to the method: A description of the methodology used to determine the haemolytic activity is found in Oren et al, Biochemistry, 2000, 39, 6103-6114, and in Raguse et al., J. Am. Chem. Soc., 2002, 124, 12774-12785.
The haemolytic activity of the peptides of the invention was evaluated by determining the release of haemoglobin which is produced on placing in contact a solution of the peptides with a suspension of erythrocytes 5% by volume, from fresh human blood.
The blood was collected aseptically using a Vactainer® K2E system (Belliver, Great Britain) with EDTA and it was stored at 4° C. for a period lower than 2 hours.
The blood was centrifuged at 6000 g for 5 minutes to separate the erythrocytes. There were washed three times with TRIS buffer (10 mM TRIS, 150 mM NaCl, pH 7.2) and they were resuspended in TRIS buffer until obtaining a suspension which contained 10% by volume of erythrocytes.
The peptides were solubilized in TRIS buffer until a final concentration of 100, 300 and 500 μM
The replicas were used for each peptide and concentration.
65 μl of 10% erythrocyte suspension was mixed with 65 μl of the peptide solution in each well of a 96-well plate (Micro-Amp®, Applied Biosystems, USA) (5% by volume of erythrocytes) and the mixture was incubated for 1 h at 37° C. under stirring. In this way, the erythrocyte suspensions were subjected to peptide concentrations of 50, 150 and 250 μM.
Next, the plates were centrifuged at 3500 g during 10 minutes and aliquots were transferred of 80 μl of supernatant to microplates with 100 wells (Bioscreen), which were diluted with 80 μl of milli-Q water.
The degree of haemolysis was determined from the absorbance at 540 nm with a Bioscreen plate reader.
The complete positive haemolysis control was determined in a TRIS buffer solution which contained 200 μM melittin (Sigma-Aldrich, Spain)
The percentage of haemolysis (H) was determined using the following equation: H=100×[Op−Ob)/(Om−Ob)]
Where OP as the optical density measured for a determined peptide concentration, Ob was the optical density of the buffer solution, and Om was the optical density for the positive control with melittin.

Series [2] relates to Pseudomonas syringae EPS94. Nature of the series: Minimum inhibitory concentration (MIC), microbial growth by optical density. The format is cell-based. The following applies: 48 h incubation at 25° C., TSB medium. As to the method:
(§1) Each experiment was performed twice.

Series [3] has as its system Erwinia amylovora PMV6076. The description is as above. The format is cell-based. Conditions: 48 h incubation at 25° C., TSB medium. The procedure:
as §1

Series [4] has as its system Xanthomonas vesicatori 2133-2. The series is described as above. Conditions: 48 h incubation at 25° C., TSB medium.
Procedure: All the bacteria were stored at a temperature of −80° C. in Luria-Bertani (LB) medium supplemented with 20% glycerine in volume/volume.
In all cases they were resuspended in sterile water to obtain a suspension adjusted to an absorbance of 0.2 to 60 nm, which approximately corresponds to 10^8 colony forming units.
To determine the minimum inhibitory concentration (MIC), the peptides were solubilized in milli-Q sterile water until a final concentration of 1000 μM and they were filtered through a 0.22 μm pore size filter.
Dilutions of the peptides of the invention were made to obtained solutions at the concentrations of 750, 500, 250, 200, 150, 125, 100, 75, 50 and 25 μM.
20 μl of each dilution were mixed with 20 μl of the suspension of the corresponding bacterial indicator, and 160 μl of the TSB (Trypticase Soy Broth) liquid medium until a total volume of 200 μl in each well of a microplate.
Two replicas were carried out for each strain, concentration and peptide under study.
The positive controls contained water instead of peptide, and the negative controls contained the peptides without the bacterial suspension.
The microbial growth was determined automatically by optical density at 600 nm using the Microbiology Analyser Bioscreen C (Labsystems)
The microplates were incubated at 25° C. for 48 hours with stirring for 20 seconds before measuring the absorbance every hour. Each experiment was performed twice.

For the compound YKLFKKILKKL-NH2 [BP119], in series [1], the “% Haemolysis 50 μM” value is 4%, the “% Haemolysis 150 μM” value came to 19% and the “% Haemolysis 250 μM” value was found to be 45%.
With `CC[C@H](C)[C@H](NC(=O)[C@H](CCCCN)NC(=O)[C@H](CCCCN)NC(=O)[C@H](Cc1ccccc1)NC(=O)[C@H](CC(C)C)NC(=O)[C@H](CCCCN)NC(=O)[C@@H](N)Cc1ccccc1)C(=O)N[C@@H](CC(C)C)C(=O)N[C@@H](CCCCN)C(=O)N[C@@H](Cc1ccc(O)cc1)C(=O)N[C@@H](CC(C)C)C(N)=O` [BP090], in series [1], the “% Haemolysis 50 μM” value is on record as 11%, the “% Haemolysis 150 μM” value is given as 57% and the “% Haemolysis 250 μM” value turned out to be 84%. Besides, the “range of concentrations including the MIC, P. syringae” value (from here on “range … P. syringae”) in series [2] lay in the range of 5 to 7.5 µM. In addition, the “range of concentrations including the MIC, E. amylovora” value (from here on “range … E. amylovora”) in series [3] fell in the range of 5 to 7.5 µM. Moreover, in series [4], the “range of concentrations including the MIC, X. vesicatoria” value (shortened to “range … X. vesicatoria”) lay within 2.5 to 5 µM.
Turning to `CC[C@H](C)[C@H](NC(=O)[C@H](CCCCN)NC(=O)[C@H](CCCCN)NC(=O)[C@H](Cc1ccccc1)NC(=O)[C@H](CC(C)C)NC(=O)[C@H](CCCCN)NC(=O)[C@H](CCCCN)NC(C)=O)C(=O)N[C@@H](CC(C)C)C(=O)N[C@@H](CCCCN)C(=O)N[C@@H](Cc1c[nH]c2ccccc12)C(=O)N[C@@H](CC(C)C)C(N)=O` [BP053], in series [1], the “% Haemolysis 50 μM” value is on record as 60%, the “% Haemolysis 150 μM” value stood at 82% and the “% Haemolysis 250 μM” value is reported as 85%. For the same compound, the “range … P. syringae” value in series [2] lay in the range of 5 to 7.5 µM. The “range … E. amylovora” value in series [3] is greater than 7.5 µM. Further, the “range … X. vesicatoria” value in series [4] is 2.5 to 5 µM.
Turning to `CC[C@H](C)[C@H](NC(=O)[C@H](CCCCN)NC(=O)[C@H](CCCCN)NC(=O)[C@H](Cc1ccccc1)NC(=O)[C@H](CC(C)C)NC(=O)[C@H](CCCCN)NC(=O)[C@H](CCCCN)NC(=O)c1ccccc1)C(=O)N[C@@H](CC(C)C)C(=O)N[C@@H](CCCCN)C(=O)N[C@@H](Cc1c[nH]c2ccccc12)C(=O)N[C@@H](CC(C)C)C(N)=O` [BP055] (Bz-KKLFKKILKWL-NH2), in series [2], the “range … P. syringae” value was greater than 7.5 µM. Also, in series [3], the “range … E. amylovora” value was greater than 7.5 µM. The “range … X. vesicatoria” value in series [4] was less than 2.5 µM.
For `CC[C@H](C)[C@H](NC(=O)[C@H](CCCCN)NC(=O)[C@H](CCCCN)NC(=O)[C@H](Cc1ccccc1)NC(=O)[C@H](CC(C)C)NC(=O)[C@H](CCCCN)NC(=O)[C@H](CCCCN)NS(=O)(=O)c1ccc(C)cc1)C(=O)N[C@@H](CC(C)C)C(=O)N[C@@H](CCCCN)C(=O)N[C@H](C(=O)N[C@@H](CC(C)C)C(N)=O)C(C)C` [BP030], in series [1], the “% Haemolysis 50 μM” value stood at 25%, the “% Haemolysis 150 μM” value worked out at 70% and the “% Haemolysis 250 μM” value worked out at 80%. Moreover, in series [2], the “range … P. syringae” value is 5 to 7.5 µM. The “range … E. amylovora” value in series [3] is 5 to 7.5 µM. The “range … X. vesicatoria” value in series [4] fell in the range of 5 to 7.5 µM.
Consider `CC[C@H](C)[C@H](NC(=O)[C@H](CCCCN)NC(=O)[C@H](CCCCN)NC(=O)[C@H](Cc1ccccc1)NC(=O)[C@H](CC(C)C)NC(=O)[C@H](CCCCN)NC(=O)[C@H](Cc1ccc(O)cc1)NC(=O)c1ccccc1)C(=O)N[C@@H](CC(C)C)C(=O)N[C@@H](CCCCN)C(=O)N[C@@H](CCCCN)C(=O)N[C@@H](CC(C)C)C(N)=O` [BP122] (Bz-YKLFKKILKKL-NH2), for which, in series [1], the “% Haemolysis 50 μM” value came out at 32%, the “% Haemolysis 150 μM” value stood at 78% and the “% Haemolysis 250 μM” value was determined as 96%. Moreover, the “range … P. syringae” value in series [2] was 5 to 7.5 µM. Further, in series [3], the “range … E. amylovora” value was greater than 7.5 µM. The “range … X. vesicatoria” value in series [4] fell in the range of 2.5 to 5 µM.
On to `CC[C@H](C)[C@H](NC(=O)[C@H](CCCCN)NC(=O)[C@H](CCCCN)NC(=O)[C@H](Cc1ccccc1)NC(=O)[C@H](CC(C)C)NC(=O)[C@H](CCCCN)NC(=O)[C@@H](N)CCCCN)C(=O)N[C@@H](CC(C)C)C(=O)N[C@@H](CCCCN)C(=O)N[C@@H](Cc1c[nH]c2ccccc12)C(=O)N[C@@H](CC(C)C)C(N)=O` [BP052], for which, in series [1], the “% Haemolysis 50 μM” value was 51%, the “% Haemolysis 150 μM” value stood at 84% and the “% Haemolysis 250 μM” value came to 79%. For the same compound, in series [2], the “range … P. syringae” value was determined as 5 µM. In addition, in series [3], the “range … E. amylovora” value is 2.5 to 5 µM. For the same compound, the “range … X. vesicatoria” value in series [4] was 2.5 to 5 µM.
LKLFKKILKKL-NH2 [BP128]: in series [1], the “% Haemolysis 50 μM” value stood at 2%, the “% Haemolysis 150 μM” value came out at 31% and the “% Haemolysis 250 μM” value is listed as 66%.
For the compound `CC[C@H](C)[C@H](NC(=O)[C@H](CCCCN)NC(=O)[C@H](CCCCN)NC(=O)[C@H](Cc1ccccc1)NC(=O)[C@H](CC(C)C)NC(=O)[C@H](CCCCN)NC(=O)[C@H](CCCCN)NC(=O)c1ccccc1)C(=O)N[C@@H](CC(C)C)C(=O)N[C@@H](CCCCN)C(=O)N[C@@H](Cc1ccc(O)cc1)C(=O)N[C@@H](CC(C)C)C(N)=O` [BP103], in series [1], the “% Haemolysis 50 μM” value is listed as 42%, the “% Haemolysis 150 μM” value turned out to be 83% and the “% Haemolysis 250 μM” value worked out at 80%. Moreover, the “range … P. syringae” value in series [2] is 5 to 7.5 µM. The “range … E. amylovora” value in series [3] was 7.5 µM. In addition, the “range … X. vesicatoria” value in series [4] was less than 2.5 µM.
As to `CC[C@H](C)[C@H](NC(=O)[C@H](CCCCN)NC(=O)[C@H](CCCCN)NC(=O)[C@H](Cc1ccccc1)NC(=O)[C@H](CC(C)C)NC(=O)[C@H](CCCCN)NC(=O)[C@@H](N)CCCCN)C(=O)N[C@@H](CC(C)C)C(=O)N[C@@H](CCCCN)C(=O)N[C@@H](Cc1c[nH]c2ccccc12)C(=O)N[C@@H](CC(C)C)C(N)=O` [BP017], the “range … P. syringae” value in series [2] is 5 to 7.5 µM. Further, the “range … E. amylovora” value in series [3] was greater than 7.5 µM. Besides, the “range … X. vesicatoria” value in series [4] fell in the range of 5 to 7.5 µM.
As to Ac-KKLFKKILKVL-NH2 [BP029], in series [2], the “range … P. syringae” value was 5 to 7.5 µM. Also, in series [3], the “range … E. amylovora” value was in the range of 5 to 7.5 µM. The “range … X. vesicatoria” value in series [4] was 7.5 µM.
On to `CC[C@H](C)[C@H](NC(=O)[C@H](CCCCN)NC(=O)[C@H](CCCCN)NC(=O)[C@H](Cc1ccccc1)NC(=O)[C@H](CC(C)C)NC(=O)[C@H](CCCCN)NC(=O)[C@H](CC(C)C)NS(=O)(=O)c1ccc(C)cc1)C(=O)N[C@@H](CC(C)C)C(=O)N[C@@H](CCCCN)C(=O)N[C@@H](Cc1c[nH]c2ccccc12)C(=O)N[C@@H](CC(C)C)C(N)=O` [BP059] (Tos-LKLFKKILKWL-NH2), for which the “range … P. syringae” value in series [2] was greater than 7.5 µM. Besides, the “range … E. amylovora” value in series [3] is greater than 7.5 µM. The “range … X. vesicatoria” value in series [4] stood at 2.5 µM.
With Ac-YKLFKKILKKL-NH2 [BP120], the “range … P. syringae” value in series [2] lay within 5 to 7.5 µM. For the same compound, the “range … E. amylovora” value in series [3] is greater than 7.5 µM. Besides, the “range … X. vesicatoria” value in series [4] fell in the range of 5 to 7.5 µM.
In the case of `CC[C@H](C)[C@H](NC(=O)[C@H](CCCCN)NC(=O)[C@H](CCCCN)NC(=O)[C@H](Cc1ccccc1)NC(=O)[C@H](CC(C)C)NC(=O)[C@H](CCCCN)NC(=O)[C@H](CCCCN)NC(C)=O)C(=O)N[C@@H](CC(C)C)C(=O)N[C@@H](CCCCN)C(=O)N[C@@H](CCCCN)C(=O)N[C@@H](CC(C)C)C(N)=O` [BP124], in series [1], the “% Haemolysis 50 μM” value is 1%, the “% Haemolysis 150 μM” value is 5% and the “% Haemolysis 250 μM” value was found to be 23%.
On the same counts, the results for `CC[C@H](C)[C@H](NC(=O)[C@H](CCCCN)NC(=O)[C@H](CCCCN)NC(=O)[C@H](Cc1ccccc1)NC(=O)[C@H](CC(C)C)NC(=O)[C@H](CCCCN)NC(=O)[C@H](Cc1ccc(O)cc1)NC(C)=O)C(=O)N[C@@H](CC(C)C)C(=O)N[C@@H](CCCCN)C(=O)N[C@@H](Cc1ccc(O)cc1)C(=O)N[C@@H](CC(C)C)C(N)=O` [BP096] are 47%, 86% and 85%.
Consider `CC[C@H](C)[C@H](NC(=O)[C@H](CCCCN)NC(=O)[C@H](CCCCN)NC(=O)[C@H](Cc1ccccc1)NC(=O)[C@H](CC(C)C)NC(=O)[C@H](CCCCN)NC(=O)[C@H](CCCCN)NS(=O)(=O)c1ccc(C)cc1)C(=O)N[C@@H](CC(C)C)C(=O)N[C@@H](CCCCN)C(=O)N[C@@H](Cc1c[nH]c2ccccc12)C(=O)N[C@@H](CC(C)C)C(N)=O` [BP054] (Tos-KKLFKKILKWL-NH2), for which the “range … P. syringae” value in series [2] was in the range of 5 to 7.5 µM. Further, in series [3], the “range … E. amylovora” value was greater than 7.5 µM. Moreover, the “range … X. vesicatoria” value in series [4] is less than 2.5 µM.
